One assay deals with T1, PPARα LBD (Homo sapiens, UniProt Q07869).
T1 construct: made in house; host or cells: bacterial BL21-DE3, vector pRSETA
T1 sequence (Q07869 192-468): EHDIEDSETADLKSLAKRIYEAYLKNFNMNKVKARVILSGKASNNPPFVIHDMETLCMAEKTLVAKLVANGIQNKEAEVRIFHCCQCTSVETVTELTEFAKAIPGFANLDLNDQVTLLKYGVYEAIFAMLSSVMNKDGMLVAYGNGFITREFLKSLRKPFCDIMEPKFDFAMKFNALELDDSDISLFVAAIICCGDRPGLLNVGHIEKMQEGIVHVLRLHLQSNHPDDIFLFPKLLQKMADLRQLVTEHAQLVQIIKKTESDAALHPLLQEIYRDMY
Put plainly: FRET assay: ligand effect on CBP fragment / NCoR ID-C binding to PPAR LBD. It is filed as biochemical. An excerpt:
(§1) The experimentally determined α value is the ratio of cofactor affinities in the presence and absence of a saturating concentration of ligand. This analysis permits a direct comparison of the effects of compounds, independent of cofactor concentration and differences in coregulator affinity for the individual receptors. […] 98(9): p.
(§2) The effects of the coregulator environment on the apparent affinities and selectivities of various ligands were than examined. Experimentally determined pKs and the α values derived from the FRET assay were used to calculate the apparent affinity of the ligand for the receptor/cofactor complex (i.e. K/α).
(§3) FIG. 5 illustrates the effect of ligands on coactivator and corepressor binding to PPAR subtypes determined by FRET.

In another assay the target is T2, PPARγ LBD (Homo sapiens, UniProt P37231).
T2 construct: made in house; host or cells: bacterial BL21-DE3, vector pRSETA
The description is as above. It is filed as biochemical. Particulars: 10 nM PPAR LBD.
Description: as §1, §2, §3

Another assay addresses T3, PPARδ LBD (Homo sapiens, UniProt Q03181).
T3 construct: made in house; host or cells: bacterial BL21-DE3, vector pRSETA
T3 sequence (Q03181 139-441): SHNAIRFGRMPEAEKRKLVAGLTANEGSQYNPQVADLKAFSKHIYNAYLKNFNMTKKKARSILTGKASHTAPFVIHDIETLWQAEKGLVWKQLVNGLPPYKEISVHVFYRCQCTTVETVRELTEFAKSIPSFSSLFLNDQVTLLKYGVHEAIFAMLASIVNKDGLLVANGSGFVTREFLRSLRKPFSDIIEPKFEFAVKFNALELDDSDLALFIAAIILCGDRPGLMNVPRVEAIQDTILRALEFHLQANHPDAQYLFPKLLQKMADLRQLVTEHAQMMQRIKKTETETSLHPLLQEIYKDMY
The assay is described as above. It is filed as biochemical.
Description: as §1, §2, §3

For a further assay, the target named is T4, full length human PPARα (Homo sapiens, UniProt Q07869).
T4 construct: expressed in transfected cells; host or cells: CV-1 cells, vector pVP16 (Clonetech)
T4 sequence (Q07869 1-468): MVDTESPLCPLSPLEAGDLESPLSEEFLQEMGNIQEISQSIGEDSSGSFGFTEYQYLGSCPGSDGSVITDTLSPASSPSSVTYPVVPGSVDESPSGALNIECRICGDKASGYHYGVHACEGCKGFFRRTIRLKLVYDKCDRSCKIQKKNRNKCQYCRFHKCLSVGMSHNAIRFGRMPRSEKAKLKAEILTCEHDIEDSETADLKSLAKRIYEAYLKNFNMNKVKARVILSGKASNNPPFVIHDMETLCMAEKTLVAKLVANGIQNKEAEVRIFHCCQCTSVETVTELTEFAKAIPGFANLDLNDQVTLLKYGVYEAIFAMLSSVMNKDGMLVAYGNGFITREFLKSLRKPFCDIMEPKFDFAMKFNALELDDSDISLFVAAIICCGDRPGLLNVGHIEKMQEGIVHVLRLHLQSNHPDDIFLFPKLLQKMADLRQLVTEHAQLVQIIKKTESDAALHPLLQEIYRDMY
Put plainly: Mammalian two-hybrid assay (CV-1 cells). As to conditions: VP16-PPARα, GAL4-NCoR (2239-2300), result in words. The assay is classed as cell-based. An excerpt: (§4) Mammalian two-hybrid assays were used to examine the ability of the tyrosine-based class of PPAR ligands to promote association or dissociation of the co-activator CBP and the corepressor NCoR in the context of a cellular environment. The assays for the three PPAR subtypes used full length human PPARα, PPARγ2 or PPARδ fused to the activation domain of VP16 and previously identified interaction domains of CBP and NCoR fused to the DNA binding domain of GAL4.
(§5) Expression plasmids for the VP16-human PPAR constructs were prepared by inserting amplified cDNAs encoding full length PPARα, PPARγ2 and PPARδ fused to amino acids 410-490 of the VP16 viral activation domain, into the expression vector pVP16 (Clonetech). […] The reporter plasmid was (UAS)5-tk-SPAP, and the internal control plasmid for all transfections was β-galactosidase expression vector (pCH110, Amersham).
(§6) CV-1 cells were maintained in culture in DME high glucose medium supplemented with 10% FBS and 2 mM glutamine in a humidified incubator (5% CO2 in air) at 37° C. Cells were harvested 72 hours prior to experimental use and placed in phenol red free D-MEM/F-12 medium with 15 mM HEPES supplemented with 10% charcoal/dextran-treated FBS (HyClone, Logan, Utah). The cells were harvested and seeded at 2.0×10^4 cell per well in a 96-well plate the day prior to transfection. Cells were transfected for 16 hr using Lipofectamine (Life Technologies, Inc., Rockville, Md.) essentially according to the manufacturer's instructions. The total amount of DNA transfected into each well was 80 ng. Transfection mixtures contained 8 ng VP16-PPAR plasmid, 8 ng SPAP reporter, 25 ng of pCH110(β-galactosidase) control plasmid, 35 ng of pBluescript II KS+ (Clonetech) and 4 ng of either coactivator or corepressor plasmid. Transfection quantities for full length PPAR and cofactor plasmids were optimized to generate a signal that was half of the maximal activation. These conditions would allow for dissociation or association to be experimentally determined for each ligand evaluated. Stock solutions of drugs were prepated in DMSO and dilutions were made in phenol red-free D-MEM/F-12 with 15 mM HEPES supplemented with 10% charcoal stripped, delipidated, heat inactivated (62° C. for 35 min) bovine calf serum (Sigma, St. Louis, Mo.) such that the final concentration of DMSO was 0.1%. Transfection mixtures were aspirated and 100 μl, of medium containing drug was added to each well.

For a further assay, the target named is T5, full length human PPARδ (Homo sapiens, UniProt Q03181).
T5 construct: expressed in transfected cells; host or cells: CV-1 cells, vector pVP16 (Clonetech)
The experiment in a line: Mammalian two-hybrid assay (CV-1 cells). It is filed as cell-based. As to conditions: VP16-PPARδ, GAL4-NCoR (2239-2300), result in words.
Description: as §4, §5, §6

The next assay concerns the target T6, PPARδ LBD / RXRα LBD (Homo sapiens, UniProt Q03181).
T6 sequence (Q03181 139-441): T3 sequence (Q03181 139-441)
T6 sequence (P19793 225-462 partner limits assumed): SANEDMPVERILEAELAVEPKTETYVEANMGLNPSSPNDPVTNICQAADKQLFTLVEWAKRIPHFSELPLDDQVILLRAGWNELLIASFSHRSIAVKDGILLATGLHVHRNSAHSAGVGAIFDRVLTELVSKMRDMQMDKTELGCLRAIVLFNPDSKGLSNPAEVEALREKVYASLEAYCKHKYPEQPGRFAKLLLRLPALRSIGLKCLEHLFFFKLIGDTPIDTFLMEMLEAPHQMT
The experiment in a line: FRET assay: ligand effect on RXRα LBD binding to PPAR LBD. As to conditions: 10 nM PPAR LBD, 4 concentrations of RXR.

The target in assay [1] is PPARα ligand binding domain (Homo sapiens, UniProt Q07869). The experiment in a line: Surface plasmon resonance: effect of compounds on co-repressor peptide binding to PPAR LBD. Particulars: SPR equilibrium response, immobilized biotinylated peptides. A general note: SPR reads the build-up and loss of mass on a sensor chip optically.
Description: (§7) A surface plasmon resonance assay was used to further characterize the effects of PPAR ligands binding of peptides derived from the co-repressors NCOR and SMRT to the PPAR subtypes. Each peptide was biotinylated and immobilized on separate flow cells of a BlAcore sensor chip. Using a BIAcore instrument, fixed concentrations of each PPAR subtype ligand binding domain were incubated with varied concentrations of test compounds and injected over the peptide-derivatized sensor chip to determine the equilibrium binding response of the receptors for the immobilized peptides.
(§8) The binding of co-activator and co-repressor peptides with PPAR ligand binding domains and the effects of compounds on these interactions were determined by surface plasmon resonance using the Biacore 3000. Approximately 300 resonance units (RU) of biotinylated peptides were immobilized to individual flow cells of a streptavidin chip. All experiments were conducted at 25° C. at a flow rate of 10 μl/minute with a buffer containing 10 mM HEPES, pH 7.4, containing 0.15 M NaCl, 3 mM EDTA and 0.005% polysorbate-20. […] Binding was determined by measuring the equilibrium binding response 10 seconds before the end of the association phase minus the response from a flow cell with no immobilized peptide.
(§9) Each point is the average of three injections.
Assay [2] deals with PPARγ ligand binding domain (Homo sapiens, UniProt P37231). The assay is described as above. Particulars: SPR equilibrium response, immobilized biotinylated peptides.
Description: as §7, §8, §9
[3] abbreviates: α = ratio of cofactor affinities in presence and absence of saturating ligand.

Structures are written as SMILES. Entries after “also recorded” stand apart in the source; their conditions may differ.

T2 sequence (P37231 234-505): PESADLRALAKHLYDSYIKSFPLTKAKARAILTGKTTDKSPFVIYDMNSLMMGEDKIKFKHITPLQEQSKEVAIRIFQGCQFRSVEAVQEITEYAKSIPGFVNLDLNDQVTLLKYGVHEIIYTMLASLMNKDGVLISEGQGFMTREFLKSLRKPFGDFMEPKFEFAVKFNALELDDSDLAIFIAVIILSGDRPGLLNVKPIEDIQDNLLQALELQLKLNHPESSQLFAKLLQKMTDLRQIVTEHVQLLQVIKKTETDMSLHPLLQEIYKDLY
PPARγ ligand binding domain, sequence (P37231 234-505): as above
T5 sequence (Q03181 whole entry): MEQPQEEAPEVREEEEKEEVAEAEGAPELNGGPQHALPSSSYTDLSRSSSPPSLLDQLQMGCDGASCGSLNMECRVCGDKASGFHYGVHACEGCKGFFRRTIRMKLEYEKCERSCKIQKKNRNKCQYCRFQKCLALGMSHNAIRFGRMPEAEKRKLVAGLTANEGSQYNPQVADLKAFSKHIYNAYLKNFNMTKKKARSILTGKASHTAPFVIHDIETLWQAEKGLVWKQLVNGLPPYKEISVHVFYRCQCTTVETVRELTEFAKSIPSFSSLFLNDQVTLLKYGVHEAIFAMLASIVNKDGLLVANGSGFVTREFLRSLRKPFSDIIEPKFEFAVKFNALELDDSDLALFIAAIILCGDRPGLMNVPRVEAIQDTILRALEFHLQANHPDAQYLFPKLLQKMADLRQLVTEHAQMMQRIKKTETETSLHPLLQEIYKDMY

In the case of `COC(=O)c1ccccc1N[C@@H](Cc1ccc(OCCc2nc(-c3ccccc3)oc2C)cc1)C(=O)O` [GW7845], the “effect on apparent affinity of PPARα for the co-activator fragment from CBP” value on PPARα LBD (10 nM PPAR LBD, CBP (57-454)) was “increased the apparent affinity”. Also, on PPARα LBD (10 nM PPAR LBD, NCoR ID-C), the “effect on affinity of PPARα for the co-repressor peptide” value is on record as “enhanced the binding; also recorded: slightly increase the affinity”. Besides, at PPARα LBD (setting [3]), the “alpha value for the association of PPARα and NCoR” value is on record as 0.16. Moreover, on PPARγ LBD (CBP (57-454)), the “effect on apparent affinity of PPARγ for the co-activator fragment from CBP” value is given as “increased the apparent affinity”. For the same compound, the “effect on affinity of PPARγ for the co-repressor peptide” value on PPARγ LBD (NCoR ID-C) was “decrease the affinity”. Moreover, the “effect on apparent affinity of PPARδ for the co-activator fragment from CBP” value on PPARδ LBD (10 nM PPAR LBD, CBP (57-454)) is “increased the apparent affinity”. Moreover, the “log α (NCoR association with PPARδ)” value at PPARδ LBD (setting [3]) turned out to be 0.14. For the same compound, the “effect on PPARα interaction with NCoR” value on full length human PPARα is on record as “neither GW1929 nor GW7845 were able to promote association with NCoR”. The “effect on PPARδ interaction with NCoR” value at full length human PPARδ is listed as “no significant association”. The “promotion of association of PPARδ with RXR” value on PPARδ LBD / RXRα LBD is on record as “most effective”. Moreover, the “effect on binding of PPARα LBD to the NCOR and SMRT co-repressor peptides” value in assay [1] is listed as “increase the binding”. For the same compound, the “effect on binding of PPARγ LBD to the NCOR- and SMRT-derived co-repressor peptides” value in assay [2] was “decreased the binding”.

For the origin of these results see patent US20050227220A1, “Compositions and Methods for Evaluating and Designing Nuclear Receptor Ligands that Modulate Co-Regulator Affinity” (priority 2002, published 2005).
